In ChEMBL document CHEMBL1155797, “Cinnamoyl- and hydroxycinnamoyl amides of glaucine and their antioxidative and antiviral activities” (Bioorg Med Chem, 2008):
pIC50: −log10 of the molar value.

Key:
[1] = test system: Radical scavenging activity; assay: Antioxidant activity assessed as DPPH free radical scavenging activity at 1.8 mM after 10 mins; format: functional
[2] = test system: Radical scavenging activity; assay: Antioxidant activity assessed as DPPH free radical scavenging activity at 3.6 mM after 10 mins; format: functional
[3] = test system: Radical scavenging activity; assay: Antioxidant activity assessed as DPPH free radical scavenging activity at 0.9 mM after 20 mins; format: functional
[4] = test system: Radical scavenging activity; assay: Antioxidant activity assessed as DPPH free radical scavenging activity at 3.6 mM after 20 mins; format: functional
[5] = test system: Radical scavenging activity; assay: Antioxidant activity assessed as DPPH free radical scavenging activity at 1.8 mM after 20 mins; format: functional
[6] = test system: Radical scavenging activity; assay: Antioxidant activity assessed as DPPH free radical scavenging activity at 0.9 mM after 10 mins; format: functional
Poliovirus 1 [7] = assay: Antiviral activity against Poliovirus type 1 Lsc-2ab in human FL cells; format: functional, organism-based; details: Enterovirus C
[8] = Selectivity index, CC50 for human FL cells to IC50 for Poliovirus type 1 Lsc-2ab; format: functional
[9] = Selectivity index, CC50 for human FL cells to IC50 for Echovirus 13; format: functional
HeLa = assay: Cytotoxicity against human HeLa Ohio-1 cells
Echovirus E13 [10] = assay: Antiviral activity against Echovirus 13 in human FL cells; format: functional, organism-based; details: Enterovirus B
[11] = Cytotoxicity against human HeLa Ohio-1 cells; format: cell-based
Coxsackievirus B1 [12] = assay: Antiviral activity against Coxsackievirus B1 in human FL cells; format: functional, organism-based; details: Enterovirus B
[13] = Cytotoxicity against human FL cells after 24 hrs; format: cell-based
[14] = Selectivity index, CC50 for human HeLa Ohio-1 cells to IC50 for Human rhinovirus type 14; format: functional
[15] = Selectivity index, CC50 for human FL cells to IC50 for Coxsackievirus B1; format: functional
Poliovirus 1 [16] = assay: Antiviral activity against Poliovirus type 1 Lsc-2ab in human FL cells assessed as inhibition of cytopathic effect relative to control; format: functional
Coxsackievirus B1 [17] = assay: Antiviral activity against Coxsackievirus B1 in human FL cells assessed as inhibition of cytopathic effect relative to control; format: functional
Echovirus E13 [18] = assay: Antiviral activity against Echovirus 13 in human FL cells assessed as inhibition of cytopathic effect relative to control; format: functional

Structure (SMILES) | Activity [1] [%] | Activity [2] [%] | Activity [3] [%] | Activity [4] [%] | Activity [5] [%] | Activity [6] [%] | pIC50 (Poliovirus 1 [7]) | Ratio CC50/IC50 [8] | Ratio CC50/IC50 [9] | CC50 (HeLa) [µM] | pIC50 (Echovirus E13 [10]) | pIC50 [11] | pIC50 (Coxsackievirus B1 [12]) | CC50 at 24 h [13] [µM] | Ratio CC50/IC50 [14] | Ratio CC50/IC50 [15] | inhibition (INH) (Poliovirus 1 [16]) | inhibition (INH) (Coxsackievirus B1 [17]) [%] | inhibition (INH) (Echovirus E13 [18])
COc1cc2c(cc1OC)-c1c(OC)c(OC)c(CN)c3c1C(C2)N(C)CC3 (centres undefined) | 2.2 | 2.9 | 2.5 | 3.8 | 3 | 1.6 |  |  |  |  |  |  |  |  |  |  |  |  | 
COc1cc2c(cc1OC)-c1c(OC)c(OC)cc3c1[C@H](C2)N(C)CC3 [GLAUCINE] | 1.1 | 1.4 | 1.2 | 1.6 | 1.3 | 0.8 | 4.22 | 1.9 | 1.9 | 182 | 4.22 | 4.66 | 4.68 | 115 | 8.3 | 5.5 |  |  | 
COc1cc2c(cc1OC)-c1c(OC)c(OC)c(CNC(=O)/C=C/c3ccc(O)cc3)c3c1C(C2)N(C)CC3 (centres undefined) | 2 | 3.2 | 1.8 | 4.8 | 2.5 | 1.8 |  |  | 5 | 143 | 4.49 | 4.89 |  | 160 | 11 |  | <50% | 0 | 
COc1cc2c(cc1OC)-c1c(OC)c(OC)c(CNC(=O)/C=C/c3cc(OC)c(O)c(OC)c3)c3c1C(C2)N(C)CC3 (centres undefined) | 14.4 | 26.3 | 10.5 | 31.6 | 18 | 8 |  |  |  | 125 |  | 4.55 |  | 112 | 4.5 |  | 0% | 0 | 0%
COc1cc(/C=C/C(=O)NCc2c3c4c(c(OC)c2OC)-c2cc(OC)c(OC)cc2CC4N(C)CC3)ccc1O (centres undefined) | 16.6 | 31.2 | 10.1 | 36.1 | 19.4 | 8.3 |  |  |  | 113 |  | 4.92 |  | 105 | 9.4 |  | 0% | 0 | <=25%
COc1cc2c(cc1OC)-c1c(OC)c(OC)cc3ccnc(c13)C2=O [OXOGLAUCINE] |  |  |  |  |  |  | 5.92 | 43.3 | 104 | 51 | 6.30 | 6.52 | 5.60 | 52 | 170 | 20.8 |  |  | 
COc1cc(/C=C/C(=O)O)ccc1O | 21 | 36.7 | 13.8 | 44.3 | 25.1 | 12 |  |  |  |  |  |  |  |  |  |  |  |  | 
O=C(O)/C=C/c1ccc(O)cc1 | 3.7 | 4.5 | 2.9 | 6.1 | 4.7 | 2.1 |  |  |  |  |  |  |  |  |  |  |  |  | 
O=C(O)/C=C/c1ccccc1O | 2.2 | 3.3 | 2.4 | 3.6 | 2.7 | 2.1 |  |  |  |  |  |  |  |  |  |  |  |  | 
Cc1cc(CCCCCCCOc2ccc(C3=NCCO3)cc2)on1 [DISOXARIL] |  |  |  |  |  |  | 5.70 | 12.5 | 19.2 | 21 | 5.89 | 5.82 | 5.70 | 25 | 14 | 12.5 |  |  | 
COc1cc(/C=C/C(=O)O)cc(OC)c1O | 26.5 | 69 | 17.2 | 69.6 | 31.9 | 16.1 |  |  |  |  |  |  |  |  |  |  |  |  | 
COc1cc2c(cc1OC)-c1c(OC)c(OC)c(CNC(=O)/C=C/c3ccccc3O)c3c1C(C2)N(C)CC3 (centres undefined) | 2.3 | 3.3 | 0.8 | 4.2 | 3.6 | 1.1 |  |  |  | 155 |  | 4.82 |  | 152 | 10.3 |  | <=25% | 0 | 0%
